Reference: patent US11040052B2, “Methods and pharmaceutical compositions for modulating autophagy in a subject in need thereof” (INSERM (INSTITUT NATIONAL DE LA SANTE ET DE LA RECHERCHE …, priority 2013, dated 2021)
Entries after “also recorded” stand apart in the source; their conditions may differ.

Columns and labels:
[1] = test system: starvation-induced autophagy in mice tissues; experiment: Starved mice: tissue AcCoA, protein acetylation and starvation-induced autophagy; assay type: in vivo
Experimental: C57BL/6 mice (Charles River Laboratory, […], France) were bred and maintained according to both the FELASA and the Animal Experimental Ethics Committee Guidelines (Val de Marne, France). Mice were housed in a temperature-controlled environment with 12 h light/dark cycles and received food and water ad libitum. For HC-related experiments, mice were injected intraperitoneally with a single 100 mg/kg dose and 6 h later were sacrificed and tissues were immediately frozen in liquid nitrogen. […] Tissue extracts were then centrifuged at 12,000 g at 4° C. and supernatants were collected. Protein concentration in the supernatants was evaluated by the bicinchoninic acid technique (BCA protein assay kit, Pierce Biotechnology, Rockford, Ill.). For hydroxycitrate-related weight-loss experiments, autophagy-deficient Atg4b^-/- mice were used. Atg4b^-/- mice have been previously described (Mariño et al., 2010). For HC-, spermidine-, and resveratrol-related experiments (tumour growth) mice were intraperitoneally injected with respectively 100 mg/kg, 50 mg/kg and 100 mg/kg doses at day 8 and day 9. At day 9, mice were intraperitoneally injected with 2 mg/kg single dose of Mitoxanthrone. For starvation related experiment (tumour growth) mice were treated as previously described (Fabrizio et. al., 2010). To avoid post-mortem autophagy induction, dead mice were immediately perfused with 4% paraformaldehyde (w:v in PBS, pH 7.4). Tissues were then harvested and further fixed with the same solution for at least 4 h, followed by treatment with 15% sucrose (w:v in PBS) for 4 h and with 30% sucrose (w:v in PBS) overnight. Tissue samples were embedded in Tissue-Tek OCT compound (Sakura Finetechnical Co. Ltd., Tokyo, Japan) and stored at -70° C. […] In each organ, the number of GFP-LC3 dots was counted in five independent visual fields from at least five mice using a TCS SP2 confocal fluorescence microscope (Leica Microsystems GmbH). […]

KRas-induced lung cancer = KRas-induced lung cancer (AdCre inhalation); assay type: in vivo, mice
Experimental: Atg5fl/fl mice were kindly given by Dr Noboru Mizushima. LSL-K-rasG12D;Atg5fl/fl mice were obtained as described in^7. In all experiments, only littermate mice were used as controls. All mice were maintained according to the ethical animal licence protocol complying with the Austrian and European legislation. All experiments were approved by Bundesministerium for Wissenschaft and Forschung, Austria (BMWF-66.015/0013-II/3b/2012).
Inhalation of 6-8-week-old mice with AdCre viruses was performed as previously reported (REF). In brief, experimental animals were anaesthetized with 10% Ketasol/Xylasol and placed on a heated pad. An AdCre-CaCl2 precipitate was produced by mixing […], 2.5 ml AdCre (1010 p.f.u. ml_1; University of Iowa, Gene Transfer Vector Core Iowa, USA) and 0.6 ml CaCl2 (1 M) for each mouse and incubated for 20 min at room temperature. One week after AdCre inhalation, mice were administered with 900 mg/kg HC per body weight in drinking water for 5 weeks and tumors lesions were evaluated by immunohistochemistry.
For KRas-induced lung cancers hisology, […] sections from at least three different planes were cut and stained with haematoxylin and eosin. Sections were scanned using a Mirax slide scanner and lung/tumour areas were automatically scored by an algorithm programmed and executed using the Definiens software suite and visually analyzed in a double blinded fashion. Immunhistochemical staining was performed by automatic staining machine (Leica Bond3) or manually processed. Sections were dehydrated and antigenic epitopes were retrieved using a 10-mM citrate buffer and microwaving for 10 min. Specimen were then incubated with rabbit polyclonal anti-Foxp3 (eBioscience, 13-5773, :100), anti-CD3E (Santa Cruz, 101442, 1:100). Primary Ab staining was detected by peroxidase conjugated anti-rabbit IgG (DAKO, P0448, 1:500). Positive cells were counted on 20 randomly chosen tumour areas at _400 magnifications in a double blinded fashion. Quantitative analysis was performed using HistoQuest software (TissueGnostics GmbH, Vienna, Austria; http://www.tissuegnostics.com).

MCA205 cells = experiment: Labeling of vesicular ATP in vitro (quinacrine/PI); assay type: cell-based, murine; conditions: compared to MTX alone
Experimental: MCA205 cells were loaded with […] quinacrine in Krebs-Ringer solution (125 mM NaCl, 5 mM KCl, 1 mM MgSO4, 0.7 mM KH2PO4, 2 mM CaCl2), 6 mM glucose and 25 mM HEPES buffer, pH 7.4) for 30 min at 37 1C. Thereafter, cells were co-stained for 10 min with […] propidium iodide (PI) and […] Hoechst 33342 (both from Molecular Probes-Life Technologies), rinsed with Krebs-Ringer solution and analyzed by automated fluorescence microscopy.

[2] = test system: CD4+CD25+Foxp3+ Tregs in tumor bed; experiment: Detection of tumor-infiltrated Tregs (flow cytometry); assay type: in vivo, mice; conditions: compared with MTX group
Experimental: Tumors were digested using Miltenyi Biotec tumor digestion kit according to manufacturer's protocol. Single cells were resuspended in RPMI 1640 and sequentially passed through 100 μm and 70 μM nylon cell strainers (BD Biosciences). Leukocytes were purified using Miltenyi Biotec magnetic beads conjugated to monoclonal anti-mouse CD45 (clone 30F11.1) according to the supplier's recommendations. Prior to staining of TIL populations for flow cytometry analysis, samples were incubated with LIVE/DEAD® Fixable Yellow Dead Cell dyes (Invitrogen) to discriminate viable cells from damaged cells. TILs were incubated with antibodies against CD16/CD32 before staining with fluorescent-labeled antibodies targeting T-cell surface markers. Then, cells were permeabilized and fixed with eBioscience Foxp3/Transcription Factor Staining Buffer Set and stained for intracellular Foxp3. Data were acquired using a MACSQuant flow cytometer (Miltenyi Biotec) and analyzed with FlowJo v. X PC software (Treestar, Oreg., USA). Tregs were defined as CD3+ CD4+ CD8− CD25+ Foxp3+ T-cell population.

Row | SMILES | AcCoA levels in mice tissues after 24 h starvation ([1]; intraperitoneal injection, starved mice, vs vehicle) | cytoplasmic protein acetylation in tissues of starved mice ([1]; parenteral administration) | starvation-induced autophagy in vivo ([1]; starved mice, LC3 lipidation and GFP-LC3 in heart and muscle) | autophagy (LC3 dots) in KRas induced lung adenocarcinomas (KRas-induced lung cancer; Atg5fl/+ tumors) | Foxp3+ regulatory T cells in tumor bed (KRas-induced lung cancer; KRas;Atg5fl/+ mice) | number and size of tumor lesions (KRas-induced lung cancer; KRas;Atg5fl/+ mice, 5 weeks in drinking water) | ratio between CD8+ and Foxp3+ lymphocytes (KRas-induced lung cancer; KRas;Atg5fl/+ tumors) | lung cancers in mice without adaptive immunity (KRas-induced lung cancer; Rag2−/− mice, data not shown) | ATP release in vitro, combined with MTX (MCA205 cells) | Foxp3+ Tregs in tumor bed, combined with MTX [2]
1 | COC(=O)CCC(=O)C(=O)OC [DMKG, dimethyl-α-ketoglutarate] | increased cardiac AcCoA levels; also recorded: avoided the depletion of AcCoA | avoided the depletion of AcCoA, the deacetylation of cytosolic proteins; also recorded: avoided the depletion of AcCoA and the deacetylation of cytoplasmic proteins | inhibited starvation-induced autophagy in vivo; also recorded: efficiently reduced autophagy in vivo | – | – | – | – | – | – | –
2 | O=C(O)CC(O)(C(=O)O)C(O)C(=O)O (stereo not shown) [HC, hydroxycitrate] | – | – | – | induced autophagy in KRas induced lung adenocarcinomas | reduces CD3+ FOXP3 Regulatory T cells in tumor bed; also recorded: reduced the density of tumor infiltration by lymphocytes expressing the Treg marker Foxp3 | reduces tumor size and lesions; also recorded: reduced the number and size of Ad-Cre-induced tumor lesions | improvement in the ratio between CD8^+ and Foxp3^+ lymphocytes | had no positive effect on lung cancers evolving in Rag2^−− mice | marked increase in ATP release; also recorded: particularly efficient in inducing the autophagy-dependent release of ATP | reduces Treg infiltration in tumor bed; also recorded: particularly efficient in reducing the frequency of Foxp3^+ Tregs in tumors
